Measured values: article PMC7693775, “AGTR1 Is Overexpressed in Neuroendocrine Neoplasms, Regulates Secretion and May Potentially Serve as a Target for Molecular Imaging and Therapy” (Cancers, 2020)
Where two headings read alike, the source gives them in different places.

How the values were obtained:
[1] = test system: BON cells; assay: serotonin ELISA of cell supernatants; assay type: cell-based, human; conditions: 1 µM, 6 h
Experimental: (§1) If not indicated otherwise, cell culture reagents were obtained from Biochrom AG (Berlin, Germany). The human NEN cell lines BON and QGP-1 (pancreatic), LCC-18 (colonic), H727 and UMC-11 (pulmonary) and all other cell lines were cultured in RPMI 1640 supplemented with 10 % fetal calf serum in a humidified atmosphere at 37 °C and 5% CO2. BON cells were a kind gift of Courtney Townsend (University of Texas, Galveston, TX, USA). LCC-18 were kindly donated by Kjell Ö berg (University of Uppsala, Uppsala, Sweden) and KRJ-1 by Dr. Irvin Modlin (Yale University, New Haven, CT, USA). QGP-1 were obtained from the Japanese Collection of Research Bioresources.
(§2) All other cell lines were obtained from Cell Line Services (Heidelberg, Germany), DSMZ (Braunschweig, Germany) or ATCC (Manassas, VA, USA). Cells were cultured for no more than 20 passages. Mycoplasma testing was done at least every six months. Cell lines were authenticated by STR analysis at DSMZ (Braunschweig, Germany). Due to the lack of reference profiles for BON and LCC-18, their respective STR profile was characterized as unique and not contamina ted with any […]
(§3) Table 1. STR profiling data for BON and LCC -18 cells.
(§4) Experiments in 96-well format were performed as previously described (18). […]

[2] = test system: H727 cells; assay: intracellular calcium mobilization assay; assay type: cell-based, human; conditions: preincubation 15-30 min before ATII (valsartan, PD123319: 1 µM)
Experimental: as §1, §2, §3, §4

[3] = biological target: T1, AGTR1 (Homo sapiens, UniProt P30556); assay: competition binding with 125I-ATII, BON cells
T1 sequence (P30556 1-359): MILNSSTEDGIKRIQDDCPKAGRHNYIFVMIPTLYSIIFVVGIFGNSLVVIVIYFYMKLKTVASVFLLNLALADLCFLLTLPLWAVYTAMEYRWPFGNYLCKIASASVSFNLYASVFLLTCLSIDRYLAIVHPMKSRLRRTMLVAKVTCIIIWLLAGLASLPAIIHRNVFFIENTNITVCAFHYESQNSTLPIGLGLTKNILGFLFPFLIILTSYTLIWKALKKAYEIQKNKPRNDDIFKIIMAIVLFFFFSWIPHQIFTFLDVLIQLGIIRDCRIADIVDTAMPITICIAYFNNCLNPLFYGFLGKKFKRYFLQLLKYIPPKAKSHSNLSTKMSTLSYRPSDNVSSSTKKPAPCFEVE
Experimental: (§5) The Boc-protected ITCC dye (69 mg) was dissolved in DCM (3.0 mL) and subjected to deprotection by addition of TFA (300 µL). The reaction mixture was stirred for 2 h, the solvent removed under reduced pressure and the mixture codistilled with DCM several times to remove […]
(§6) TFA. […] MS (ESI): C39H51N4NaO7S2
(§7) 2.2 eq.) and DIPEA (7.2 µL, 42 µmol, 4.7 eq.) and the reaction mixture stirred for 1 h. The deprotected ITCC dye (8.0 mg, 9.0 µmol, 1.0 eq.) was dissolved in DMF (125 µL) with DIPEA (3.6 µL, 21 µmol, 2.3 eq.) and added to the reaction mixture which was stirred for additional 17 h. The mixture was precipitated from Et2O and the precipitate purified via flash chromatography (DCM/MeOH) to afford […]
(§8) Peptide iodination was performed as previously described [ 1 ].
(§9) (Sigma, Deisenhofen, Germany) were iodinated with 1 mCi carrier -free Na 125 I (NEZ033L010MC, Perkin Elmer, Waltham, MA, USA) and purified by HPLC (Analyt ic HPLC 1200 Series, Agilent, Santa Clara, CA, USA; see Figure S1 in supplementary material). The method for the competitive binding assay was described in detail before. For saturation experiments, binding buffer was prepared […]
(§10) of additional unlabeled peptide (total binding). Non -specific binding was subtracted from total binding to obtain spec ific binding. […]

[4] = test system: BON cells; assay type: cell-based, human; conditions: for effect on ATII-induced calcium signal: BON cells, preincubation 15-30 min before ATII (valsartan, PD123319: 1 µM)
[5] = biological target: T1, AGTR1; assay: competition binding with 125I-ATII, H727 cells
Experimental: as §5, §6, §7, §8, §9, §10

[6] = biological target: T2, ATII receptor (AGTR1, AGTR2) (Homo sapiens, UniProt P50052); assay: in vitro receptor autoradiography of tissue cryosections; assay type: binding; conditions: normal pancreas; 1 µM competitor
T2 construct: Consecutive cryosections of each tissue were incubated with the radioligand in the absence or presence of an excess of non-labeled ATII; from tissue; host or cells: flash-frozen cryosections of patient pancreatic and small-intestinal NEN and of control pancreas, small intestine and liver
T2 sequence (P50052 1-363): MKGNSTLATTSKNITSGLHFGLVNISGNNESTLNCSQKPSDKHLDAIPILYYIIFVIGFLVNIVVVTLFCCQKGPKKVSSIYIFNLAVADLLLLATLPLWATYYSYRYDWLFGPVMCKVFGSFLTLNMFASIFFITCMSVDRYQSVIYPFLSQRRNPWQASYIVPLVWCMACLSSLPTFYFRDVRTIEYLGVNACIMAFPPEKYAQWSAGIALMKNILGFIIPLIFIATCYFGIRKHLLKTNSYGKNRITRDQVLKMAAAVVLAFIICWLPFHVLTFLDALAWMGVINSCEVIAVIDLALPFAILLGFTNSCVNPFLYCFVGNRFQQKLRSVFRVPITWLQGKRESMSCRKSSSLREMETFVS

[7] = biological target: T3, ATII receptor (AGTR1, AGTR2) (Homo sapiens, UniProt P30556); assay: as above; assay type: binding; conditions: 1 µM competitor
T3 construct: Consecutive cryosections of each tissue were incubated with the radioligand in the absence or presence of an excess of non-labeled ATII; from tissue; host or cells: flash-frozen cryosections of patient pancreatic and small-intestinal NEN and of control pancreas, small intestine and liver
T3 sequence (P30556 1-359): T1 sequence (P30556 1-359)

[8] = test system: BON cells; assay: metabolic activity (AlamarBlue); assay type: cell-based, human; conditions: 96 h, different concentrations
Experimental: (§11) filter paper and measured in a gamma counter. Additional tissue sections were stained with hematoxylin and eosin for comparison with the corresponding autoradiograms.
as §1, with “Bioresources. […]” for “Bioresources.”
(§12) Cells were seeded in quadruplicates at a density of 5,000 cells in 50 µ L medium per well in 96 well plates, grown overnight and treated with the indicated ligand concentrations (on top of the well, final volume 100 µ L). After 96 h, metabolic activity was determined by addition of 100 µ L medium containing AlamarBlue™ redox indicator (Thermo Fisher, Waltham, MA, US) to each well. After 3 –4 h, the resulting fluorescence was measured with an EnVision Multilabel Plate Reader (Perkin Elmer, Waltham, USA). […]

[9] = test system: H727 cells; assay: metabolic activity (AlamarBlue); assay type: cell-based, human; conditions: 96 h, different concentrations
Experimental: as §11
as §1, with “Bioresources. […]” for “Bioresources.”
as §12

[10] = test system: BON cells; assay: chromogranin A ELISA of cell supernatants; assay type: cell-based, human; conditions: 10 µM preincubation 15 min, 100 nM ATII
Experimental: as §1, §2, §3, §4

[11] = biological target: AGTR1; set-up: method as in PMID 25313325; conditions: read-out: published Ki; cited from earlier work
[12] = test system: receptor negative QGP-1 tumors; conditions: 1 nmol i.v., NIRF imaging
Experimental: (§13) free medium for 10 min at room tem perature. A buffer baseline was obtained on the dynamic mass
(§14) used and plotted with GraphPad Prism 5.04.
(§15) For in vivo receptor targeting, the near -infrared fluorescent
(§16) in 100 µ L 0.9 % NaCl per animal).
(§17) fluorescence intensities.
(§18) animal research authorities.
J. Med. Chem. 2016 , 59, 10100–10112,

[13] = test system: AGTR1-positive BON tumors; assay: in vivo near-infrared fluorescent imaging, xenograft; set-up: species or system mice
Experimental: seeded with 15,000/50,000 cells per well.
as §13, §14, §15, §16, §17, §18
First Linear Peptidic Urotensin -II Receptor Agonist. J. Med. Chem. 2016 , 59, 10100–10112,

[14] = biological target: angiotensin II (Homo sapiens), P01019; assay: competition
[15] = biological target: 125I-angiotensin II (Homo sapiens), P01019; assay: radioligand
[16] = biological target: angiotensin II (Homo sapiens), P01019; assay: competition; remark: listed apart in the source

Sequence of angiotensin II (Homo sapiens), P01019 (P01019 whole entry, looked up): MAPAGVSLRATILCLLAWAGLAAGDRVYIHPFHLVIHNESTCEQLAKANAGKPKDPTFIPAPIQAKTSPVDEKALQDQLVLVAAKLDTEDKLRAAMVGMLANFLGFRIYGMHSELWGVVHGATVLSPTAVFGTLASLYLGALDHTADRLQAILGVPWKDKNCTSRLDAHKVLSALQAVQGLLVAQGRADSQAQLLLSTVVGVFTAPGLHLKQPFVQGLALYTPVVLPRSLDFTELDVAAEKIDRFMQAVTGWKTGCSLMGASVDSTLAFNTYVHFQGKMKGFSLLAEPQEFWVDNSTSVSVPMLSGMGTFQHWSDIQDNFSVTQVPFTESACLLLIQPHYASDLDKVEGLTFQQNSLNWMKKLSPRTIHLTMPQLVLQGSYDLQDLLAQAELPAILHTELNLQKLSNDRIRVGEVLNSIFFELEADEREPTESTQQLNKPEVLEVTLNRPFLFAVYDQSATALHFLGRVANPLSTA
Sequence of 125I-angiotensin II (Homo sapiens), P01019 (P01019 whole entry, looked up): as above

CCOc1nc2cccc(C(=O)O)c2n1Cc1ccc(-c2ccccc2-c2nc(=O)o[nH]2)cc1 [azilsartan]
serotonin (5HT) secretion [1]: did not modify

Cc1cc(Cn2cnc3c2C[C@@H](C(=O)O)N(C(=O)C(c2ccccc2)c2ccccc2)C3)ccc1N(C)C [PD123319]
effect on ATII-induced calcium signal [2]: did not influence | displacement of 125I-ATII binding [3]: not | effect on ATII-induced calcium signal [4]: did not influence | displacement of 125I-ATII binding [5]: not | displacement of 125I-ATII binding [6]: displaced | displacement of 125I-ATII binding ([7]; pancreatic NEN tissues #1, #4, #6, #8): not | displacement of 125I-ATII binding ([7]; small-intestinal NEN tissues): unable to compete

CCCCC(=O)N(Cc1ccc(-c2ccccc2-c2nnn[nH]2)cc1)[C@H](C(=O)O)C(C)C [valsartan]
effect on ATII-induced calcium signal [2]: significantly diminish | metabolic activity [8]: no change | metabolic activity [9]: no change | effect on ATII-induced calcium signal [4]: significantly diminish | serotonin (5HT) secretion [1]: did not modify | effect on ATII-stimulated CgA secretion [10]: diminished

saralasin
Ki [11]: 1 nM

CC[C@H](C)[C@H](NC(=O)[C@H](Cc1ccc(O)cc1)NC(=O)[C@@H](NC(=O)[C@H](CCCNC(=N)N)NC(=O)[C@@H](N)CC(=O)O)C(C)C)C(=O)N[C@@H](Cc1c[nH]cn1)C(=O)N1CCC[C@H]1C(=O)N[C@@H](Cc1ccccc1)C(=O)O [ATII, angiotensin II]
EC50 ([4]; 24 h): 4.9 ± 5.2 nM

CC(C)[C@H](NC(=O)[C@H](CCCNC(=N)N)NC(=O)CN(C)C(=O)CCC(=O)NCCCOCCOCCOCCCNC(=O)c1ccc2c(c1)C(C)(C)C(=CC=CC=CC=CC1=[N+](CCCCS(=O)(=O)[O-])c3ccccc3C1(C)C)N2CCCCS(=O)(=O)O)C(=O)N[C@@H](Cc1ccc(O)cc1)C(=O)N[C@H](C(=O)N[C@@H](Cc1c[nH]cn1)C(=O)N1CCC[C@H]1C(=O)N[C@@H](C)C(=O)O)C(C)C [saralasin–ITCC]
decrease of affinity by ITCC versus published Ki of saralasin [3]: 250 fold | uptake in QGP-1 tumors [12]: Low non-significant uptake | accumulation in AGTR1-positive xenograft tumors ([13]; 1 nmol i.v., NIRF imaging): selective accumulation | ex vivo organ imaging ([13]; 6 hours after injection): accumulation in kidneys and liver

B1: Angiotensin II receptor type 1, P30556 (protein)
chain: T1 sequence (P30556 1-359)
Ki [14]: 0.1 nM | Kd [15]: 0.6 nM | Ki [16]: 0.2 nM
